Measured values from PMC4126345, “Large-scale filament formation inhibits the activity of CTP synthetase” (eLife, 2014).

How the values were obtained:
[1] = target: T1, CTP synthetase (CtpS E277R) (Escherichia coli, UniProt P0A7E5, E277R); assay: CTP inhibition of CTP synthesis by purified enzyme (absorbance at […] nm), […] enzyme; type: biochemical
T1 construct: gene pyrG; full-length, 6XHis tag not cleaved

CTP synthetase (CtpS) [2] = target: T2, CTP synthetase (CtpS) (Escherichia coli, UniProt P0A7E5); assay: CTP production (transmittance at […] nm) and light scattering of purified CtpS with DON; type: biochemical
T2 construct: gene pyrG; full-length
T2 sequence (P0A7E5 2-545): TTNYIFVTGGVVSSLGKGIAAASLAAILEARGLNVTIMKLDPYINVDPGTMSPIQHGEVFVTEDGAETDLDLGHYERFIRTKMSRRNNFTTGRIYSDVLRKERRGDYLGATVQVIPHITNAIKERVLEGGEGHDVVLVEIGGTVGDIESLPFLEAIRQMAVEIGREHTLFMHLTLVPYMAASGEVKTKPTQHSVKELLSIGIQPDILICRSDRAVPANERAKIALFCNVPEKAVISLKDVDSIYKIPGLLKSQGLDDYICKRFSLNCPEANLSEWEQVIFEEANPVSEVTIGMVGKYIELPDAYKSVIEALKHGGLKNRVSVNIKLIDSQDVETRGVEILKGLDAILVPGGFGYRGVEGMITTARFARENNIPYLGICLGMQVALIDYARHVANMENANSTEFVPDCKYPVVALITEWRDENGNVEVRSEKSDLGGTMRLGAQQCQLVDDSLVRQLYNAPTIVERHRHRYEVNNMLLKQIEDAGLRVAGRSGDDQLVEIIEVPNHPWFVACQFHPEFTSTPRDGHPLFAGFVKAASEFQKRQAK

CTP synthetase (CtpS) [3] = target: T2, CTP synthetase (CtpS); assay: cryo-EM difference density in the CtpS filament ([…] Å); type: binding
CTP synthetase (CtpS) [4] = target: T2, CTP synthetase (CtpS); assay: purified enzyme turnover; ATP with UTP depolymerizes and reactivates CtpS (light scattering and activity); type: biochemical
CTP synthetase (CtpS) [5] = target: T2, CTP synthetase (CtpS); assay: purified enzyme turnover to CTP; UTP with ATP depolymerizes and reactivates CtpS (light scattering and activity); type: biochemical
CTP synthetase (CtpS) [6] = target: T2, CTP synthetase (CtpS); assay: CTP production by purified enzyme initiated by glutamine; type: biochemical

T1 sequence (P0A7E5 2-545 E277R): as the sequence (P0A7E5 2-545) above, with E276R counted along it

Nc1ccn([C@@H]2O[C@H](COP(=O)(O)OP(=O)(O)OP(=O)(O)O)[C@@H](O)[C@H]2O)c(=O)n1 [CTP]
IC50 [1]: 833 µM

[N-]=[N+]=CC(=O)CC[C@H](N)C(=O)O [6-Diazo-5-oxo-L-norleucine]
CTP production (transmittance at 291 nm) and light scattering of purified CtpS w (CTP synthetase (CtpS) [2]): When added to activity buffer, DON abolishes both CTP production and CtpS polymerization

Nc1ncnc2c1ncn2[C@@H]1O[C@H](COP(=O)(O)OP(=O)(O)O)[C@@H](O)[C@H]1O [ADP]
cryo-EM difference density in the CtpS filament (8.4 Å) (CTP synthetase (CtpS) [3]): Similarly strong density is found in the difference map in the positions of bound ADP.

Nc1ncnc2c1ncn2[C@@H]1O[C@H](COP(=O)(O)OP(=O)(O)OP(=O)(O)O)[C@@H](O)[C@H]1O [ATP]
purified enzyme turnover; ATP with UTP depolymerizes and reactivates CtpS (light) (CTP synthetase (CtpS) [4]): Addition of ATP and UTP depolymerized the sample.

O=c1ccn([C@@H]2O[C@H](CO[P@@](=O)(O)O[P@@](=O)(O)OP(=O)(O)O)[C@@H](O)[C@H]2O)c(=O)[nH]1 [UTP]
purified enzyme turnover to CTP; UTP with ATP depolymerizes and reactivates CtpS (CTP synthetase (CtpS) [5]): Upon addition of these substrate nucleotides, we observed a sharp decrease in light scattering

NC(=O)CC[C@H](N)C(=O)O [glutamine]
CTP production by purified enzyme initiated by glutamine (CTP synthetase (CtpS) [6]): CTP production was then initiated by the addition of glutamine to form a complete activity buffer.
